According to publication PMC9166766 (Experimental & Molecular Medicine, 2022):
No end group written: not given here.

Tested on: calcineurin (CNA) phosphatase activity
Test: In vitro calcineurin phosphatase activity assay
Format: biochemical
Conditions: purified GST-tagged peptides with CNA 30 min room temperature
Method: We measured calcineurin phosphatase activity in vitro using a calcineurin phosphatase assay kit (BML-AK804, Enzo Life Sciences, Farmingdale, NY, USA). We incubated GST or GST-tagged peptides with CNA for 30 min at room temperature and then followed the manufacturer’s instructions. To measure endogenous calcineurin phosphatase activity, we transiently transfected Jurkat T cells with CAG-HA-mCherry-peptides by electroporation. After 24 h, we pretreated the Jurkat T cells with FK506 for 1 h before activating them with PMA and ionomycin. Next, we washed the cells with TBS buffer (20 mM Tris, pH 7.2, 150 mM NaCl), resuspended them with lysis buffer from the calcineurin cellular activity assay kit (BML-AK816, Enzo Life Sciences), and kept them on ice for 30 min. We collected the lysate supernatant and removed free phosphate by gel filtration using the Desalting Column Resin included in the kit. Next, we followed the manufacturer’s instructions.
Jurkat T cells expressing only HA-mCherry were used as a negative control, and cells treated with FK506 were used as a positive control. d In vitro calcineurin phosphatase activity assays using purified GST-tagged peptides. Purified GST was used as a negative control. […] Statistical differences were determined using one-way ANOVA. *p < 0.05, NS nonsignificant, NC negative control.

CABIN1-L-1-2: 10 amino acids from proline 2146 to proline 2155 of full-length CABIN1; expressed GST-, GAL4 DBD- or HA-mCherry-tagged (PEITVTPPTP; also: expressed GST-, GAL4 DBD- or HA-mCherry-tagged, end not given here)
calcineurin phosphatase activity in vitro: did not reduce the phosphatase activity of CNA in vitro
